Consider 11 compounds from ChEMBL document CHEMBL1201862, “PubChem BioAssay data set” (2004).

Each structure is given as a SMILES string.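 Growth conditions: 96-well plates. Treatment: test compound, 48 hours, 5 concentrations. Analysis: linear interpolation between bracketing concentrations; unreached endpoints set to highest concentration. At the GI50, growth is halved.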 Activity calls are given as the source filed them. Rule as the data show it: active = GI50 up to about 1.1 µM and inactive = higher. A value given as a limit tells only on which side of the number the result lay.

Among the test systems are SW-620; DMS-114; A549; TK-10; RXF 393; DMS-273; HT-29; SNB-75; M19-MEL; SK-MEL-5; UACC-257; NCI-H23; HOP-92; DU-145; BT-549; Hs-578T; PC-3; NCI/ADR-RES; MDA-MB-231; MDA-MB-435.
What all share (experiment): NCI-60 cell line screen, 48 h

On to `CC(=O)OC1=C2CC3(C)OC(=O)CC(C)(C)C3=CC=C2C=C(C(C)C)C1=O` (stereo unspecified), for which the GI50 is 0.316 µM (active) with SW-620; 0.366 µM (active) in the assay with DMS-114; 1.9 µM (inactive) with A549; 1.21 µM (inactive) in the assay on TK-10; 0.184 µM (active) with RXF 393; 0.916 µM (active) in the assay on DMS-273. The GI50 in the assay with HT-29 is 1.07 µM (active); in the assay on SNB-75, 0.71 µM (active); in the assay on M19-MEL, 0.526 µM (active); in the assay with SK-MEL-5, 0.826 µM (active); in the assay with UACC-257 it was 0.49 µM (active); in the assay with NCI-H23, 0.42 µM (active). The GI50 with HOP-92 was 0.207 µM (active).
As to `O=c1[nH]c(-c2ccccc2)nc2cc([N+](=O)[O-])c(/C(Cl)=C/c3ccccc3)cc12`, the GI50 in the assay on SW-620 is 23.6 µM (inactive); with DMS-114, 35.7 µM (inactive); in the assay with A549, 23.2 µM (inactive); with TK-10 it was 27.7 µM (inactive); in the assay on RXF 393, 14.4 µM (inactive); with DMS-273 it was 29.1 µM (inactive). The GI50 is > 10 µM (inactive) in the assay on HT-29; 22.3 µM (inactive) in the assay with SNB-75; 37.8 µM (inactive) in the assay with M19-MEL; 16.1 µM (inactive) with SK-MEL-5; 16.1 µM (inactive) with UACC-257; 43.3 µM (inactive) in the assay on NCI-H23. The GI50 in the assay on HOP-92 is 11.8 µM (inactive).
Take `COc1ccc(/C(Cl)=C(\C=O)c2ccc(OC)cc2)cc1`: the GI50 was > 100 µM (inactive) in the assay on SW-620; > 100 µM (inactive) with DMS-114; 46.9 µM (inactive) in the assay on A549; > 100 µM (inactive) in the assay on TK-10; > 100 µM (inactive) in the assay with RXF 393; 37 µM (inactive) with DMS-273. Moreover, the GI50 in the assay on HT-29 is > 100 µM (inactive); in the assay on SNB-75, > 100 µM (inactive); in the assay with M19-MEL, 93.3 µM (inactive); with SK-MEL-5, > 100 µM (inactive); in the assay with UACC-257, 72.4 µM (inactive); with NCI-H23, > 100 µM (inactive).
Turning to `Nc1n[nH]c(CCCCCCCc2nnc(N)[nH]2)n1`, the GI50 in the assay with DMS-114, in the assay on TK-10, with RXF 393, with HT-29, in the assay with SNB-75 and with M19-MEL was > 100 µM (inactive) throughout. The GI50 in the assay with UACC-257 and in the assay with NCI-H23 was > 100 µM (inactive) in each case.
Consider `O=[N+]([O-])c1ccc(C2=Nc3ccccc3SC(c3ccccc3)C2)cc1` (stereo unspecified), for which the GI50 with SW-620 is 14.5 µM (inactive); in the assay with DMS-114 it was 18.2 µM (inactive); in the assay on A549, 20.4 µM (inactive); in the assay on TK-10, 38.1 µM (inactive); with RXF 393, 24.6 µM (inactive); with DMS-273 it was 13.3 µM (inactive). The GI50 in the assay with SNB-75 is 18.1 µM (inactive); in the assay on M19-MEL, 15.4 µM (inactive); in the assay with SK-MEL-5 it was 18.1 µM (inactive); with UACC-257, 26.2 µM (inactive).
Regarding `CC1OC(O)CC(OC(=O)c2ccccc2)C1OC(=O)c1ccccc1` (stereo unspecified), the GI50 with SW-620 was 13.3 µM (inactive); in the assay with A549, > 100 µM (inactive); with TK-10, > 100 µM (inactive); in the assay on RXF 393 it was 18.8 µM (inactive); in the assay with DMS-273 it was 14.5 µM (inactive); in the assay on HT-29, 21.6 µM (inactive). Also, the GI50 was 17.5 µM (inactive) with M19-MEL; 16.7 µM (inactive) in the assay on SK-MEL-5; 15.3 µM (inactive) in the assay with UACC-257; 16 µM (inactive) in the assay on NCI-H23; 20 µM (inactive) in the assay with HOP-92.
On to `COC(=O)C1(Cc2ccccc2)Cc2cc3c(cc2C1)CCC3`, for which the GI50 with DU-145 is 34.5 µM (inactive); with BT-549, 35 µM (inactive); in the assay on SW-620 it was 36.1 µM (inactive); in the assay on Hs-578T, 34.4 µM (inactive); in the assay on A549, 29.6 µM (inactive); in the assay on PC-3, 24 µM (inactive). Moreover, the GI50 with TK-10 was 68.7 µM (inactive); with RXF 393, 20.1 µM (inactive); with HT-29, 10.5 µM (inactive); in the assay with NCI/ADR-RES it was 35.5 µM (inactive); in the assay with SNB-75 it was 20.3 µM (inactive); in the assay with MDA-MB-231, 45.3 µM (inactive). For the same compound, the GI50 is 17.2 µM (inactive) with SK-MEL-5; 29.2 µM (inactive) with UACC-257; 38.5 µM (inactive) with NCI-H23; 12.4 µM (inactive) in the assay on MDA-MB-435; 11 µM (inactive) in the assay with HOP-92.
For `COc1cc2c(cc1OC)C(=O)/C(=C/c1cc(C)cc(C)c1)C2`, the GI50 with DU-145 is 0.198 µM (active); in the assay with BT-549, 11.3 µM (inactive); in the assay on SW-620 it was 0.0394 µM (active); with Hs-578T, 0.538 µM (active); in the assay on A549, 0.0713 µM (active); with PC-3, 0.0667 µM (active). Also, the GI50 in the assay on TK-10 is 21.1 µM (inactive); in the assay on RXF 393, 0.0736 µM (active); in the assay with HT-29, 0.0385 µM (active); with NCI/ADR-RES, 0.065 µM (active); in the assay with SNB-75, 0.211 µM (active); in the assay on MDA-MB-231, 0.143 µM (active). For the same compound, the GI50 in the assay on SK-MEL-5 was 0.0239 µM (active); in the assay with UACC-257, 0.561 µM (active); with NCI-H23, 0.313 µM (active); with MDA-MB-435, < 0.0146 µM (active); with HOP-92, 3.29 µM (inactive).
For `C/C(=N\O)C1CC(CC(=O)O)C1(C)C` (stereo unspecified), the GI50 in the assay on DU-145, in the assay on BT-549, with SW-620, with Hs-578T, in the assay on A549 and with PC-3 was > 100 µM (inactive) throughout. In addition, the GI50 in the assay with TK-10, in the assay with RXF 393, with HT-29, with NCI/ADR-RES, in the assay with SNB-75 and in the assay with MDA-MB-231 was > 100 µM (inactive) in each case. Also, the GI50 in the assay on SK-MEL-5, with UACC-257, with NCI-H23, with MDA-MB-435 and in the assay on HOP-92 was > 100 µM (inactive) in each case.
For the compound `CCOC(=O)NC(=O)c1cn(CC(=O)NCC(=O)NCC(=O)N2CCN(CCn3c(C)nc(C(N)=O)c3N)CC2)c(=O)[nH]c1=O`, the GI50 in the assay on SW-620, in the assay on DMS-114, in the assay with A549, in the assay with TK-10, in the assay on HT-29 and with SNB-75 was > 100 µM (inactive) in each case. For the same compound, the GI50 in the assay with M19-MEL, in the assay on SK-MEL-5, with UACC-257, with NCI-H23 and in the assay on HOP-92 was > 100 µM (inactive) in each case.
On to `CC(C)=C1C2CC3(C)CCC2(C)CCC13.CC1=CCC2C3(C)CCC2(C(C)C)C1C3` (stereo unspecified), for which the GI50 was 29.4 µM (inactive) in the assay with DU-145; 19.8 µM (inactive) in the assay with BT-549; 23.7 µM (inactive) in the assay on SW-620; 18.4 µM (inactive) with Hs-578T; 19.7 µM (inactive) in the assay with A549; 39.3 µM (inactive) with PC-3. Further, the GI50 with TK-10 was 25.5 µM (inactive); in the assay on RXF 393, 17.8 µM (inactive); in the assay on HT-29, 16.2 µM (inactive); in the assay on NCI/ADR-RES, 18.4 µM (inactive); in the assay on SNB-75, 23.2 µM (inactive); in the assay with MDA-MB-231, 22 µM (inactive). Moreover, the GI50 is 10 µM (inactive) in the assay with SK-MEL-5; 27.2 µM (inactive) with UACC-257; 38.3 µM (inactive) in the assay on NCI-H23; 28.9 µM (inactive) in the assay on MDA-MB-435; 27.7 µM (inactive) in the assay with HOP-92.
